{
  "source": "patent US20250230193A1",
  "about": "“CYCLIC COMPOUND HAVING SELECTIVE KRAS INHIBITORY EFFECT ON HRAS AND NRAS” (CHUGAI SEIYAKU KABUSHIKI KAISHA, priority 2022, published 2025)",
  "key": {"[1]": {"molecular_target": "GDP-bound NRAS wild-type protein (Homo sapiens, UniProt P01111)", "sequence (P01111 whole entry)": "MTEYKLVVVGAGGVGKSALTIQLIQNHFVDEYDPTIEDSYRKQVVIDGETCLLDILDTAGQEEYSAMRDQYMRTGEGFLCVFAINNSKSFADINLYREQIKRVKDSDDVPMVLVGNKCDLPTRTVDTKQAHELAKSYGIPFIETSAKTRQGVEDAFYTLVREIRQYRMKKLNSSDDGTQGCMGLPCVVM", "assay": "Binding to NRAS by surface plasmon resonance (SPR), Single Cycle Kinetics", "conditions": "SPR"}, "[2]": {"molecular_target": "GDP-bound HRAS wild-type protein (Homo sapiens, UniProt P01112)", "sequence (P01112 whole entry)": "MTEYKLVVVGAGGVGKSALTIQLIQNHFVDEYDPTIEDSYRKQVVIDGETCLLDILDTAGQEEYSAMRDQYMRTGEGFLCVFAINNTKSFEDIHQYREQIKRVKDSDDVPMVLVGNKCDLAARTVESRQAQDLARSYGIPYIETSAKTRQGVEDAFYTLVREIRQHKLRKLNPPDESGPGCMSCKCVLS", "assay": "Binding to HRAS by surface plasmon resonance (SPR), Single Cycle Kinetics", "conditions": "SPR"}, "[3]": {"conditions": "KD ratio, GDP-bound NRAS wild-type vs GDP-bound KRAS wild-type"}, "[4]": {"conditions": "KD ratio, GDP-bound HRAS wild-type vs GDP-bound KRAS wild-type"}},
  "data": [
    {"smiles": "CC[C@H](C)[C@@H]1NC(=O)[C@H](CC(C)C)N(C)C(=O)C[C@@H](C(=O)N2CCCC2)N(C)C(=O)[C@H](C2CCCC2)N(C)C(=O)C2(CCCC2)NC(=O)[C@@H]2CCCN2C(=O)[C@H](CCc2cc(F)c(C(F)(F)F)c(F)c2)NC(=O)CN(C)C(=O)[C@H](Cc2ccc(C(F)(F)F)cc2)N2CCCC[C@@H](C2=O)N(C)C(=O)CN(C)C1=O", "note": "[PP0571]", "values": [
      {"measurement": "NRAS/KRAS (ratio of KD value with respect to GDP-bound NRAS wild-type protein to KD value with respect to KRAS)", "setting": "[1]", "value": "B (a compound having 3 or more and less than 10 is denoted as B)"},
      {"measurement": "HRAS/KRAS (ratio of KD value with respect to GDP-bound HRAS wild-type protein to KD value with respect to KRAS)", "setting": "[2]", "value": "B (a compound having 3 or more and less than 10 is denoted as B)"}
    ]},
    {"smiles": "CCO[C@@H]1C[C@H]2C(=O)NC3(CC(C)(C)C3)C(=O)N(C)[C@@H](C3CCCC3)C(=O)N(C)[C@H](C(=O)N(C)C)CC(=O)N(CC)[C@@H](CC(C)C)C(=O)N[C@@H]([C@@H](C)CC)C(=O)NCC(=O)N(C)[C@H]3C/C=C\\CCN(C3=O)[C@@H](Cc3ccc(C(F)(F)F)cc3)C(=O)N(C)CC(=O)N[C@@H](CCc3cc(F)c(C(F)(F)F)c(F)c3)C(=O)N2C1", "note": "[PP1772]", "values": [
      {"measurement": "NRAS/KRAS (ratio of KD value for NRAS to KD value for KRAS)", "setting": "[1]; [3]", "value": "B (a compound having 3 or more and less than 10 is denoted as B)"},
      {"measurement": "HRAS/KRAS (ratio of KD value for HRAS to KD value for KRAS)", "setting": "[2]; [4]", "value": "B (a compound having 3 or more and less than 10 is denoted as B)"}
    ]},
    {"smiles": "CC[C@H](C)[C@@H]1NC(=O)[C@H](CC2CC2)N(C)C(=O)C[C@@H](C(=O)N(C)C)N(C)C(=O)[C@H](C2CCCC2)N(C)C(=O)C2(CCC2)NC(=O)[C@@H]2[C@@H](OCC(F)F)CCN2C(=O)[C@H](CCc2cc(F)c(C(F)(F)F)c(F)c2)NC(=O)CN(C)C(=O)[C@H](Cc2ccc(C(F)(F)F)cc2)N2CC/C=C\\C[C@@H](C2=O)N(C)C(=O)CN(C)C1=O", "note": "[PP1533]", "values": [
      {"measurement": "NRAS/KRAS (ratio of KD value for GDP-bound NRAS wild-type protein to KD value for KRAS)", "setting": "[1]; KD ratio class", "value": "AA (a compound having 20 or more is denoted as AA)"},
      {"measurement": "HRAS/KRAS (ratio of KD value for GDP-bound HRAS wild-type protein to KD value for KRAS)", "setting": "[2]; KD ratio class", "value": "A (a compound having 10 or more and less than 20 is denoted as A)"}
    ]},
    {"smiles": "CC[C@H](C)[C@@H]1NC(=O)[C@H](CC(C)C)N(C)C(=O)C[C@@H](C(=O)N2CCOCC2)N(C)C(=O)[C@H](C2CCCC2)N(C)C(=O)C2(CCCC2)NC(=O)[C@@H]2CCCN2C(=O)[C@H](CCc2ccc(C(F)(F)F)c(Cl)c2)NC(=O)CN(C)C(=O)[C@H](Cc2ccc(Cl)cc2)N2CCCC[C@@H](C2=O)N(C)C(=O)CN(C)C1=O", "note": "[PP0532]", "values": [
      {"measurement": "NRAS/KRAS (ratio of KD value with respect to GDP-bound NRAS wild-type protein to KD value with respect to KRAS)", "setting": "[1]", "value": "C (A compound having a KD ratio of 0.1 or more and less than 3 is denoted as C)"},
      {"measurement": "HRAS/KRAS (ratio of KD value with respect to GDP-bound HRAS wild-type protein to KD value with respect to KRAS)", "setting": "[2]", "value": "B (a compound having 3 or more and less than 10 is denoted as B)"}
    ]},
    {"smiles": "CCO[C@@H]1C[C@H]2C(=O)NC3(CCC3)C(=O)N(C)[C@@H](C3CCCC3)C(=O)N(C)[C@H](C(=O)N(C)C)CC(=O)N(C)[C@@H](CC)C(=O)N[C@@H]([C@@H](C)CC)C(=O)N(C)CC(=O)N(C)[C@H]3CCCCCN(C3=O)[C@@H](Cc3ccc(F)c(Cl)c3)C(=O)N(C)CC(=O)N[C@@H](CCc3cc(F)c(C(F)(F)F)c(F)c3)C(=O)N2C1", "note": "[PP0909]", "values": [
      {"measurement": "NRAS/KRAS (ratio of KD value with respect to NRAS to KD value with respect to KRAS)", "setting": "[1]; [3]", "value": "B (a compound having 3 or more and less than 10 is denoted as B)"},
      {"measurement": "HRAS/KRAS (ratio of KD value with respect to HRAS to KD value with respect to KRAS)", "setting": "[2]; [4]", "value": "B (a compound having 3 or more and less than 10 is denoted as B)"}
    ]},
    {"smiles": "CCO[C@@H]1C[C@H]2C(=O)NC3(CCC3)C(=O)N(C)[C@@H](C3CCCC3)C(=O)N(CC)[C@H](C(=O)N3CCOCC3)CC(=O)N(C)[C@@H](CO)C(=O)N[C@@H]([C@@H](C)CC)C(=O)N(C)CC(=O)N(C)[C@H]3CCCCCN(C3=O)[C@@H](Cc3ccc(C(F)(F)F)cc3)C(=O)N(C)CC(=O)N[C@@H](CCc3cc(F)c(C(F)(F)F)c(F)c3)C(=O)N2C1", "note": "[PP0945]", "values": [
      {"measurement": "NRAS/KRAS (ratio of KD value with respect to NRAS to KD value with respect to KRAS)", "setting": "[1]; [3]", "value": "B (a compound having 3 or more and less than 10 is denoted as B)"},
      {"measurement": "HRAS/KRAS (ratio of KD value with respect to HRAS to KD value with respect to KRAS)", "setting": "[2]; [4]", "value": "A (a compound having 10 or more and less than 20 is denoted as A)"}
    ]},
    {"smiles": "CCC[C@H]1C(=O)N[C@@H]([C@@H](C)CC)C(=O)N(C)CC(=O)N(C)[C@H]2C/C=C\\CCN(C2=O)[C@@H](Cc2ccc(C(F)(F)F)cc2)C(=O)N(C)CC(=O)N[C@@H](CCc2cc(F)c(C(F)(F)F)c(F)c2)C(=O)N2C[C@H](OCC)C[C@H]2C(=O)N(C)C2(CCC2)C(=O)N(C)[C@@H](C2CCCC2)C(=O)N(C)[C@H](C(=O)N2CCCCC2)CC(=O)N1C", "note": "[PP3118, (2S,8S,12R,14S,20S,23S,27S,30S,36S,38Z)-20-cyclopentyl-8-[2-[3,5-difluoro-4-(trifluoromethyl)phenyl]ethyl]-12-ethoxy-4,16,19,22,26,32,35-heptamethyl-30-[(1S)-1-methylpropyl]-23-(piperidine-1-carbonyl)-27-propyl-2-[[4-(trifluoromethyl)phenyl]methyl]spiro[1,4,7,10,16,19,22,26,29,32,35-undecazatricyclo[34.5.1.0^10,14]dotetracont-38-ene-17,1′-cyclobutane]-3,6,9,15,18,21,25,28,31,34,42-undecone]", "values": [
      {"measurement": "NRAS/KRAS (ratio of KD value with respect to GDP-bound NRAS wild-type protein to KD value with respect to KRAS)", "setting": "[1]; GDP-bound wild-type proteins", "value": "A (a compound having 10 or more and less than 20 is denoted as A)"},
      {"measurement": "HRAS/KRAS (ratio of KD value with respect to GDP-bound HRAS wild-type protein to KD value with respect to KRAS)", "setting": "[2]; GDP-bound wild-type proteins", "value": "B (a compound having 3 or more and less than 10 is denoted as B)"}
    ]}
  ]
}
